Test results as given in article PMC11659602, “Discovering covalent cyclic peptide inhibitors of peptidyl arginine deiminase 4 (PADI4) using mRNA-display with a genetically encoded electrophilic warhead” (Communications Chemistry, 2024).
Several values for one entry are separate records, joined by “and”; a condition that tells them apart may be missing. Equal values may be shown once. Read-outs that look alike come from different tables or passages of the source. Where a SMILES comes first, the peptide text is derived from it. Bridges are numbered along the chain shown (N, C = ends). [ ]: non-standard residue; d: D form. Orn(fluoroacetimidoyl) = N=C(CF)NCCC[C@H](N)C(=O)O

Key:
Format in all cases: biochemical
[1] = target: T1, PADI4 (Homo sapiens, UniProt Q9UM07); assay: Incubation time-dependent COLDER assay IC50(t), Krippendorff fit; conditions: for Ki / kinact: Krippendorff fit of IC50 vs time
T1 construct: His6; made in house
Method: (§1) To determine KI and kinact of covalent peptide inhibitors, COLDER assays were used[52]. Peptide dilutions were prepared using 5-fold dilutions from 500 µM and 300 µM to 0.8 µM and 2.4 µM, respectively, at 1% DMSO in COLDER buffer (50 mM HEPES, 150 mM NaCl and 2 mM DTT, pH 7.5). The 9 peptide dilutions were added to a 96-well plate, alongside a 1% DMSO control. An equal volume of 10 mM BAEE was added to each well and the solution was homogenised by pipette mixing. This was mixed with 50 nM His-PADI4, 0.6 mg/mL BSA and 10 mM CaCl2, in COLDER buffer, to bring the final volume to 300 µL in each well. Alternatively, His-PAD1 (100 nM) /His-PADI2 (100 nM) /His-PADI3 (250 nM) were used. For assays with PADI1 and PADI3, 10 mM N^α-benzoyl-L-arginine methyl […] (BAME) was used as the substrate instead of BAEE[48],[58],[59]. At 15-minute intervals, for 5 timepoints, 50 µL of solution was taken from each well and quenched with 10 µL EDTA (300 mM). 200 µL of COLDER solution containing 20 mM diacetyl monoxime/2,3-butanedione monoxime (Merck), 0.5 mM thiosemicarbazide (Acros Organics), 2.25 M H3PO4, 4.5 M H2SO4 and 1.5 mM NH4Fe(SO4)2.12H2O was added to each well. Samples were incubated for 20 min at 95 °C before measuring absorbance at 540 nm on a CLARIOstar Plus (BMG LABTECH). IC50 values for each time point were determined using non-linear regression with GraphPad Prism. Incubation time–dependent potency IC50(t) against incubation time was fitted to the Krippendorff equation (below) to determine KI and kinact using a Python script[53],[59]. […] IC50t=KI1+S/KM⋅2−2e^−ηIC50⋅kinact⋅t/ηIC50⋅kinact⋅t−1 WhereηIC50=IC50t/KI1+S/KM+IC50t

[2] = target: T2, PADI2 (Homo sapiens, UniProt Q9Y2J8); assay: Incubation time-dependent COLDER assay, selectivity; conditions: for PADI2 activity normalised to 0.1% DMSO: quenched after 60 mins
T2 construct: His6; made in house
Method: as §1

[3] = target: T3, PADI3 (Homo sapiens, UniProt Q9ULW8); assay: as above; conditions: for selectivity for PADI4 over PADI3: COLDER; for PADI3 activity, normalised (Figure S11c): same values as column 60 of Figure S11b; for PADI3 activity normalised to 0.1% DMSO: quenched after 60 mins
T3 construct: PADI3 (residue 1-664); made in house; host or cells: E. coli NiCo21(DE3)
T3 sequence (Q9ULW8 1-664): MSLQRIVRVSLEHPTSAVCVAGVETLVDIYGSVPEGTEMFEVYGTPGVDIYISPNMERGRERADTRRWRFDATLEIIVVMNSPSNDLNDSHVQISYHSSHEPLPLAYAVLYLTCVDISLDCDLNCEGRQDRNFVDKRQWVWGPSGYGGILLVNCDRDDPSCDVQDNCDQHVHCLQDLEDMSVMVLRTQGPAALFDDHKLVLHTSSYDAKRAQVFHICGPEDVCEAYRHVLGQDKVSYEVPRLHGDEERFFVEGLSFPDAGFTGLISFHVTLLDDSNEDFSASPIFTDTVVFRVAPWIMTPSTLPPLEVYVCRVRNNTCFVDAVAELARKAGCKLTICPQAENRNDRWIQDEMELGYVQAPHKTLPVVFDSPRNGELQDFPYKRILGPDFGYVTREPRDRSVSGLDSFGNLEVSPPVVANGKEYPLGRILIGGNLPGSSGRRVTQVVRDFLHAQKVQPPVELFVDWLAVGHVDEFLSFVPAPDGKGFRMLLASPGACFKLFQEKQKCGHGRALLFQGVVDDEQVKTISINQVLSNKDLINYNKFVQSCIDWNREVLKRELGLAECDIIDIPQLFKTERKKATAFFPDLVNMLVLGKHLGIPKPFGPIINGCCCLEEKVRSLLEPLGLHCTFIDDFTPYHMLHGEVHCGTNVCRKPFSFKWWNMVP
Method: as §1

[4] = 15 mins, replicates, read-out: apparent IC50
[5] = 30 mins, replicates, read-out: apparent IC50
[6] = 45 mins, replicates, read-out: apparent IC50
[7] = 60 mins, replicates, read-out: apparent IC50
[8] = 75 mins, replicates, read-out: apparent IC50

T2 sequence (Q9Y2J8 whole entry, species assumed): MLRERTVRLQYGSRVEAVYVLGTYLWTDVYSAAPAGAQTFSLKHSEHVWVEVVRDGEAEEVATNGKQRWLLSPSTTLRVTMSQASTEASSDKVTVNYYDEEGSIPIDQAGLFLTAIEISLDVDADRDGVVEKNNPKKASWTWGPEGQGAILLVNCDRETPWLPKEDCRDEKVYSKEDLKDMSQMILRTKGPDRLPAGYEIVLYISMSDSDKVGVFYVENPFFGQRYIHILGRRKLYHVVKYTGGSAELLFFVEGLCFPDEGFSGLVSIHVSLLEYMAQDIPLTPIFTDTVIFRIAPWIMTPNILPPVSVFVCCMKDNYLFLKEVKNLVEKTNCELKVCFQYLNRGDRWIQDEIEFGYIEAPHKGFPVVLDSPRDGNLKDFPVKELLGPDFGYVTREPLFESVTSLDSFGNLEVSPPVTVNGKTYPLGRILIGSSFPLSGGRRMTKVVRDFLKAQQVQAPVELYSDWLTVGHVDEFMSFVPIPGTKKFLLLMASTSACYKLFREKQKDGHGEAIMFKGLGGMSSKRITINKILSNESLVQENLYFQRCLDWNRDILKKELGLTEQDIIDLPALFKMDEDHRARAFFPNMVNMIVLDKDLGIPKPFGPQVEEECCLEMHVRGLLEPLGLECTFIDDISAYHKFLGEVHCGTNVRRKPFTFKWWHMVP
T1 sequence (Q9UM07 whole entry): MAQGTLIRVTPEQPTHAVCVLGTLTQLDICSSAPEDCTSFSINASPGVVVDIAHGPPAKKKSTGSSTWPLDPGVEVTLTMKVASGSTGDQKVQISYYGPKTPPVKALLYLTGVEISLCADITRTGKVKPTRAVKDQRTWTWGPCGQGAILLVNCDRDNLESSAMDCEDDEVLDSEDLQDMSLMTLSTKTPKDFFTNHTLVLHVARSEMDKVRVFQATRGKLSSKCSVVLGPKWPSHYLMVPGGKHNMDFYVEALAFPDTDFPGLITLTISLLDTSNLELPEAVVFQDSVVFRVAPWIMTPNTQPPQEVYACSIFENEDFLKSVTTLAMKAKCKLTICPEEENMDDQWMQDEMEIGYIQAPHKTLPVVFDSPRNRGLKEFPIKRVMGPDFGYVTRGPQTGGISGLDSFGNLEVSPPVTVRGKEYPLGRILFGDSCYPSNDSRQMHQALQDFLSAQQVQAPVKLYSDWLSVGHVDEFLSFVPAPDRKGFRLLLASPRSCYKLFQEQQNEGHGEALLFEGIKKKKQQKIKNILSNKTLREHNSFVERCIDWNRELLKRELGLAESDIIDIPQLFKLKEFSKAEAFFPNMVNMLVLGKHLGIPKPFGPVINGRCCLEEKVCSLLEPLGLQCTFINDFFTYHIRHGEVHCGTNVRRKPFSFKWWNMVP

SMILES: N=C(N)NCCC[C@@H]1NC(=O)[C@H](CCCNC(=N)CF)NC(=O)[C@H](CC(=O)O)NC(=O)[C@H](Cc2ccc(O)cc2)NC(=O)[C@H](CCCCN)NC(=O)[C@H](CO)NC(=O)[C@@H](Cc2ccc(O)cc2)NC(=O)CSC[C@@H](C(=O)NCC(N)=O)NC(=O)[C@H](CC(=O)O)NC(=O)[C@H](CCCNC(=N)N)NC(=O)[C@@H]2CCCN2C(=O)[C@H](CO)NC1=O [cP4_4, ySKYD(2)RSPRDCG] ({CH2CO}-[dY]SKYD[Orn(fluoroacetimidoyl)]RSPRDCG-NH2; thioether N-12)
- kinact/KI [1]: 1230 M⁻¹ s⁻¹
- IC50 [1, 4]: 8810 nM and 8730 nM and 8280 nM
- IC50 [1, 5]: 4670 nM and 4780 nM and 4310 nM
- IC50 [1, 6]: 3420 nM and 4190 nM and 3180 nM
- IC50 [1, 7]: 3080 nM and 3100 nM and 2670 nM
- IC50 [1, 8]: 2720 nM and 2530 nM and 2470 nM
- Ki [1]: 1900 ± 100 nM
- kinact [1]: 0.00217 s⁻¹
- PADI4 activity, normalised (Figure S11c) ([1]; cP4_4 0.08 µM): 98.2718 and 96.1223 and 99.8314
- PADI4 activity, normalised (Figure S11c) ([1]; cP4_4 0.24 µM): 93.4756 and 94.2113
- PADI4 activity, normalised (Figure S11c) ([1]; cP4_4 0.4 µM): 100.554 and 87.7482
- PADI4 activity, normalised (Figure S11c) ([1]; cP4_4 1.2 µM): 75.0589 and 75.4411 and 70.326
- PADI4 activity, normalised (Figure S11c) ([1]; cP4_4 2 µM): 67.2548 and 61.3338
- PADI4 activity, normalised (Figure S11c) ([1]; cP4_4 6 µM): 29.9549 and 26.3769
- PADI4 activity, normalised (Figure S11c) ([1]; cP4_4 10 µM): 22.5225 and 20.5991 and 19.0146
- PADI4 activity, normalised (Figure S11c) ([1]; cP4_4 30 µM): 7.3132 and 8.5351 and 5.9198
- PADI4 activity, normalised (Figure S11c) ([1]; cP4_4 50 µM): 3.0999 and 5.4575 and 3.9528
- PADI2 activity, normalised (Figure S11c) ([2]; cP4_4 0.08 µM): 99.789 and 100
- PADI2 activity, normalised (Figure S11c) ([2]; cP4_4 0.24 µM): 95.7806 and 93.2203
- PADI2 activity, normalised (Figure S11c) ([2]; cP4_4 0.4 µM): 102.532 and 106.78
- PADI2 activity, normalised (Figure S11c) ([2]; cP4_4 1.2 µM): 102.954 and 112.106
- PADI2 activity, normalised (Figure S11c) ([2]; cP4_4 2 µM): 97.2574 and 108.91
- PADI2 activity, normalised (Figure S11c) ([2]; cP4_4 6 µM): 96.6245 and 106.586
- PADI2 activity, normalised (Figure S11c) ([2]; cP4_4 10 µM): 98.7342 and 104.552
- PADI2 activity, normalised (Figure S11c) ([2]; cP4_4 30 µM): 95.8861 and 92.155
- PADI2 activity, normalised (Figure S11c) ([2]; cP4_4 50 µM): 84.8101 and 93.6077
- selectivity for PADI4 over PADI3 [3]: 8 fold
- PADI3 activity, normalised (Figure S11c) ([3]; cP4_4 0.08 µM): 98.438 and 99.5208 and 99.723
- PADI3 activity, normalised (Figure S11c) ([3]; cP4_4 0.24 µM): 84.0122 and 99.425 and 100.739
- PADI3 activity, normalised (Figure S11c) ([3]; cP4_4 0.4 µM): 91.6386 and 95.0168 and 95.5679
- PADI3 activity, normalised (Figure S11c) ([3]; cP4_4 1.2 µM): 73.8132 and 78.438 and 79.5014
- PADI3 activity, normalised (Figure S11c) ([3]; cP4_4 2 µM): 66.9219 and 70.5798
- PADI3 activity, normalised (Figure S11c) ([3]; cP4_4 6 µM): 34.487 and 31.5764 and 37.6731
- PADI3 activity, normalised (Figure S11c) ([3]; cP4_4 10 µM): 25.1148 and 25.0599 and 28.7165
- PADI3 activity, normalised (Figure S11c) ([3]; cP4_4 30 µM): 13.6294 and 7.139 and 10.988
- PADI3 activity, normalised (Figure S11c) ([3]; cP4_4 50 µM): 9.311 and 5.7978 and 6.279

SMILES: CC(C)C[C@@H]1NC(=O)[C@H](CCCCN)NC(=O)[C@H](CO)NC(=O)[C@H](CO)NC(=O)[C@H](Cc2ccc(O)cc2)NC(=O)[C@H](Cc2c[nH]cn2)NC(=O)[C@H](CCCNC(=N)CF)NC(=O)[C@H](CC(=O)O)NC(=O)[C@H](CC(C)C)NC(=O)[C@@H](Cc2ccc(O)cc2)NC(=O)CSC[C@@H](C(=O)NCC(N)=O)NC(=O)[C@H](Cc2ccc(O)cc2)NC1=O [cP4_15, yLD(2)HYSSKLYCG] ({CH2CO}-[dY]LD[Orn(fluoroacetimidoyl)]HYSSKLYCG-NH2; thioether N-12)
- kinact/KI [1]: 3550 M⁻¹ s⁻¹
- IC50 ([1]; 60-minute time point, no preincubation, read-out: PADI4 IC50): 850 nM
- IC50 [1, 4]: 4150 nM and 3690 nM and 2680 nM
- IC50 [1, 5]: 1490 nM and 1390 nM and 1520 nM
- IC50 [1, 6]: 996 nM and 1150 nM and 1210 nM
- remaining activity at 0.048 µM ([1]; 1 h, 0.048 µM, quenched after 60 mins, read-out: PADI4 activity normalised to 0.1% DMSO): 98.8%
- remaining activity at 0.08 µM ([1]; 1 h, 0.08 µM, quenched after 60 mins, read-out: PADI4 activity normalised to 0.1% DMSO): 93.4%
- remaining activity at 0.24 µM ([1]; 1 h, 0.24 µM, quenched after 60 mins, read-out: PADI4 activity normalised to 0.1% DMSO): 87.8%
- remaining activity at 0.4 µM ([1]; 1 h, 0.4 µM, quenched after 60 mins, read-out: PADI4 activity normalised to 0.1% DMSO): 76.7%
- remaining activity at 1.2 µM ([1]; 1 h, 1.2 µM, quenched after 60 mins, read-out: PADI4 activity normalised to 0.1% DMSO): 35.6%
- remaining activity at 2 µM ([1]; 1 h, 2 µM, quenched after 60 mins, read-out: PADI4 activity normalised to 0.1% DMSO): 23.1%
- remaining activity at 6 µM ([1]; 1 h, 6 µM, quenched after 60 mins, read-out: PADI4 activity normalised to 0.1% DMSO): 12.5%
- remaining activity at 10 µM ([1]; 1 h, 10 µM, quenched after 60 mins, read-out: PADI4 activity normalised to 0.1% DMSO): 7.1%
- IC50 [1, 7]: 809 nM and 775 nM and 965 nM
- IC50 [1, 8]: 752 nM and 784 nM and 780 nM
- Ki [1]: 780 ± 60 nM
- kinact [1]: 0.00283 s⁻¹
- PADI2 activity normalised to 0.1% DMSO ([2]; 0.08 µM): 102.409 and 98.7439
- PADI2 activity normalised to 0.1% DMSO ([2]; 0.24 µM): 101.533 and 89.4278
- PADI2 activity normalised to 0.1% DMSO ([2]; 0.4 µM): 100.438 and 90.9979
- PADI2 activity normalised to 0.1% DMSO ([2]; 1.2 µM): 102.409 and 98.4299
- PADI2 activity normalised to 0.1% DMSO ([2]; 2 µM): 106.46 and 98.5345
- PADI2 activity normalised to 0.1% DMSO ([2]; 6 µM): 102.299 and 92.9867
- PADI2 activity normalised to 0.1% DMSO ([2]; 10 µM): 102.956 and 100.105
- PADI2 activity normalised to 0.1% DMSO ([2]; 30 µM): 100.219 and 95.1849
- PADI2 activity normalised to 0.1% DMSO ([2]; 50 µM): 83.0292 and 85.4501
- PADI3 activity normalised to 0.1% DMSO ([3]; 0.08 µM): 106.942 and 103.941
- PADI3 activity normalised to 0.1% DMSO ([3]; 0.24 µM): 100.503 and 99.2995
- PADI3 activity normalised to 0.1% DMSO ([3]; 0.4 µM): 100.805 and 104.641
- PADI3 activity normalised to 0.1% DMSO ([3]; 1.2 µM): 98.1891 and 97.8109
- PADI3 activity normalised to 0.1% DMSO ([3]; 2 µM): 82.1932 and 92.0315
- PADI3 activity normalised to 0.1% DMSO ([3]; 6 µM): 75.5533 and 73.7303
- PADI3 activity normalised to 0.1% DMSO ([3]; 10 µM): 66.499 and 67.8634
- PADI3 activity normalised to 0.1% DMSO ([3]; 30 µM): 30.8853 and 30.3853
- PADI3 activity normalised to 0.1% DMSO ([3]; 50 µM): 18.8129 and 17.5131
- IC50 ([3]; 60-minute time point, no preincubation): ~40000 nM
- selectivity for PADI4 over PADI3 [3]: Approximately 45 fold
